Data reported in patent publication US8268845B2, “Tetrahydro- and dihydroquinazolinones” (Merck Patent GmbH, priority 2005, dated 2012).

In order of falling melting point:
1. O=c1[nH]c(-c2ccc(Cl)cc2)nc2c1CCCC2 [formula 7b, 2-(p-Chlorophenyl)-5,6,7,8-tetrahydroquinazolin-4(3H)-one]  255 °C
2. CC1CCc2nc(-c3ccccc3)[nH]c(=O)c2C1 (centres unmarked) [formula 10a, 6-Methyl-2-phenyl-5,6,7,8-tetrahydroquinazolin-4(3H)-one]  237 °C
3. O=c1[nH]c(-c2ccccc2)nc2c1CCCC2 [formula 7a, 2-Phenyl-5,6,7,8-tetrahydroquinazolin-4(3H)-one]  224 °C
4. CCC1CCc2nc(-c3ccccc3)[nH]c(=O)c2C1 (centres unmarked) [formula 10b, 6-Ethyl-2-phenyl-5,6,7,8-tetrahydroquinazolin-4(3H)-one]  221 °C
5. CC1=Cc2c(nc(-c3ccccc3)[nH]c2=O)CC1 [formula 11a, 6-Methyl-2-phenyl-7,8-dihydroquinazolin-4(3H)-one]  218 °C
6. CSc1nc2c(c(=O)[nH]1)C=CCC2 [formula 6g, 2-Methylthio-7,8-dihydroquinazolin-4(3H)-one]  214 °C
7. CN1CCN(c2nc3c(c(=O)[nH]2)CCCC3)CC1  210 °C
8. CCC1=Cc2c(nc(-c3ccccc3)[nH]c2=O)CC1 [formula 11b, 6-Ethyl-2-phenyl-7,8-dihydroquinazolin-4(3H)-one]  198 °C
9. O=c1[nH]c(-c2ccccc2F)nc2c1C=CCC2 [formula 6d, 2-(o-Fluorophenyl)-7,8-dihydroquinazolin-4(3H)-one]  191 °C
10. O=c1[nH]c(-c2ccccc2F)nc2c1CCCC2 [formula 7d, 2-(o-Fluorophenyl)-5,6,7,8-tetrahydroquinazolin-4(3H)-one]  170 °C
11. O=c1[nH]c(N2CCNCC2)nc2c1CCCC2  121 °C

With `O=c1[nH]c(-c2ccc(Cl)cc2)nc2c1C=CCC2` [formula 6b, 2-(p-Chlorophenyl)-7,8-dihydroquinazolin-4(3H)-one] the melting point was > 250 °C.
In the case of `O=c1[nH]c(N2CCN(Cc3ccccc3)CC2)nc2c1CC(S(=O)(=O)c1ccccc1)CC2` (centres unmarked) [formula 13b, 2-(4-benzylpiperazin-1-yl)-6-Benzenesulfonyl-5,6,7,8-tetrahydroquinazolin-4(3H)-one], the melting point is reported as > 250 °C.
With `CN1CCN(c2nc3c(c(=O)[nH]2)CC(S(=O)(=O)c2ccccc2)CC3)CC1` (centres unmarked) [formula 13c, 6-Benzenesulfonyl-2-(4-methylpiperazin-1-yl)-5,6,7,8-tetrahydroquinazolin-4(3H)-one] the melting point was > 250 °C.
